Columns and labels:
Assay type in all cases: in vivo
[1] = test system: multiparous Holstein cows; assay: Effect of glucagon on liver glycogen content of dairy cows, liver biopsies; conditions: NTG and STG groups, FIG. 3
Description: (§1) Glucagon purified from bovine pancreas, was weighed, dissolved in 0.09% NaCl adjusted to pH 10.5, and diluted so that the amount to be infused daily was contained in 480 ml to allow for an infusion rate of 20 ml/h. All glassware that was to be in contact with glucagon was rinsed with a solution of 1.0% bovine serum albumin to prevent adherence of glucagon to glass surfaces.
The four groups of 10 multiparous Holstein cows per group that were used for the main trial were normal controls (NC), normal cows treated with glucagon (NTG), susceptible controls that should be inducible into ketosis (SC), and susceptible cows treated with glucagon (STG). The two groups of 10 normal cows were selected from cows that had body condition scores at calving that ranged from 3.2 to 3.8. The two groups of 10 susceptible cows were selected from obese cows that have been fed at 2 times NRC requirements for energy during late lactation and throughout the dry period so they calved at a body condition score of 4.0 to 4.5. […]
(§2) A liver biopsy was taken at 7 days postpartum and analyzed immediately for triacylglycerols and glycogen. […]
(§3) On d 14 postpartum, the SC and the STG groups began the FRBD (feed restriction and 1,3-butanediol in the diet) protocol in which feed intake was restricted to 80% of the average intake for the previous 2 days and 1,3-butanediol (BD) was added, a precursor of ketone bodies, to the ration in increasing quantities either until the cow became ketotic or until 1.4 kg of BD was offered daily. […]
Glycogen and triacylglycerol concentrations of liver samples were determined as described by Mills, S. E. et al., "Characterization of metabolic changes during a protocol for inducing lactation ketosis in dairy cows", J. Dairy Sci. 69:352 (1986a). Total lipid content was measured as described by Drackley, J. K. et al., "Metabolic changes in blood and liver of dairy cows during feed restriction or administration of 1,3-butanediol", J. Dairy Sci., 74:4254 (1991). […]

dairy cows = assay: Toxicity observation during glucagon treatment of dairy cows; conditions: treated dairy cows, 10 mg/day
Description: On d 14 postpartum, the SC and the STG groups began the FRBD (feed restriction and 1,3-butanediol in the diet) protocol in which feed intake was restricted to 80% of the average intake for the previous 2 days and 1,3-butanediol (BD) was added, a precursor of ketone bodies, to the ration in increasing quantities either until the cow became ketotic or until 1.4 kg of BD was offered daily. The STG group at 21 days postpartum began to receive a continuous intravenous infusion of 10 mg of glucagon daily, which continued for 14 days. The SC group were infused with saline as a vehicle control. The NC and the NTG groups continued to receive feed for ad libitum intake, but the NTG group received an infusion of glucagon from d 21 to 35 postpartum and the NC group was infused with vehicle control. (The NTG group gave information on how normal early lactation cows respond to 14-day intravenous infusions of glucagon).

[2] = test system: early lactation dairy cows; assay: Preliminary data on glucagon doses above 10 mg/day in early lactation dairy cows; conditions: doses of greater than 10 mg/day; inventors' preliminary data
[3] = test system: multiparous Holstein cows; assay: Effect of glucagon on liver triacylglycerol (lipid) levels of dairy cows, liver biopsies
Description: as §1
The four groups of 10 multiparous Holstein cows per group that were used for the main trial were normal controls (NC), normal cows treated with glucagon (NTG), susceptible controls that should be inducible into ketosis (SC), and susceptible cows treated with glucagon (STG). […]
as §2, §3
Glycogen and triacylglycerol concentrations of liver samples were determined as described by Mills, S. E. et al., "Characterization of metabolic changes during a protocol for inducing lactation ketosis in dairy cows", J. Dairy Sci. 69:352 (1986a). […]

With glucagon the “liver glycogen content after d 38, before the 42-d biopsy” value ([1]; after termination of infusion) was “dropped dramatically”, the “liver glycogen concentration from the 20-d to the 23-d biopsy sample” value ([1]; after infusions began at d 21) was “decreased” and the “liver glycogen concentration from d 23 up to the d 38 biopsy” value ([1]; d 38 is 3 d after infusions stopped) was “increased at a parallel rate”. For the same substance, the “glucagon toxicity in the animals” value (dairy cows) was “without any indication of glucagon toxicity”, the “incidence of fatty liver at high dose” value [2] was “may actually increase the incidence of fatty liver” and the “liver triacylglycerol, covariate adjusted to average d-7 value, normal cows” value ([3]; NTG vs NC, FIG. 2) was “only a slight difference between the NC and the NTG groups”. For the same substance, the “change in concentration of lipid in livers of normal cows” value ([3]; normal cows (NTG vs NC), 10 mg/d intravenous infusion d 21-35 postpartum, FIG. 1) was “no major decrease”.

From patent US6004932A, “Use of glucagon as a metabolic conditioner for dairy cows and other ruminants” (Iowa State University Research Foundation, Inc., priority 1998, dated 1999)
